Experimental findings from ChEMBL document CHEMBL1135722, “Cysteine derivatives as inhibitors for carboxypeptidase A: synthesis and structure-activity relationships” (J Med Chem, 2002) are described below.

This test has as its target T1, Carboxypeptidase A1 (Bos taurus, UniProt P00730).
T1 sequence (P00730 whole entry): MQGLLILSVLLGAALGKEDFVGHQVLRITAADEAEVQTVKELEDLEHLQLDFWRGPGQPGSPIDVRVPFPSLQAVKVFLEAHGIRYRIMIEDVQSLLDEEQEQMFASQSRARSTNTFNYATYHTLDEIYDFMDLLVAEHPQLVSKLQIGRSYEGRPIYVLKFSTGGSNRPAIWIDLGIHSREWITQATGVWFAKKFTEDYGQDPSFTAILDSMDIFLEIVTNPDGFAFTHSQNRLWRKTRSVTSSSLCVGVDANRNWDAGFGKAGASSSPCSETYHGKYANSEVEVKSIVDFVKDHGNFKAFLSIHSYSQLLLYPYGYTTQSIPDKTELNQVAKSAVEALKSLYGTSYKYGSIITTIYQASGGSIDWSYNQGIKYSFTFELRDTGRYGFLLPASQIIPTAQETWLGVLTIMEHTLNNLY
The test is described as follows: Inhibition of bovine carboxypeptidase A (CPA) using hippuryl-L-phenylalanine (Hipp-L-Phe) as a substrate.
In general, Ki refers to a dissociation constant, usually derived from enzyme kinetics or from competition with a known ligand. A higher Ki goes with a looser hold on the target. The molecule `O=C(O)C(CS)NCc1ccccc1` (stereo not given) came in with a Ki of 0.27 µM.

Consider `O=C(O)[C@H](CS)NCc1ccccc1`, for which the Ki came to 33 µM.

In turn, `CCNC(CS)C(=O)O` (stereo not given) gave a Ki of 1.4 µM.

Consider `CCCNC(CS)C(=O)O` (stereo not given), for which affinity was put at a Ki of 5.6 µM.

On to `O=C(O)C(CS)NCC1CCCCC1` (stereo not given), for which affinity was put at a Ki of 9.4 µM.

For the molecule `N[C@H](CS)C(=O)O`, the affinity corresponds to a Ki of 2.3 µM.

In turn, `O=C(O)[C@@H](CS)NCCc1ccccc1` displayed a Ki of 0.055 µM.

As for `O=C(O)C(CS)CCCc1ccccc1` (stereo not given), the Ki worked out at 1.35 µM.

The molecule `CC(C)CNC(CS)C(=O)O` (stereo not given) returned a Ki of 7.5 µM.

`O=C(O)[C@@H](CS)NC1CCCCC1` yielded a Ki of 2.9 µM.

The molecule `O=C(O)C(CS)CCc1ccccc1` (stereo not given) yielded a Ki of 2.1 µM.

`O=C(O)[C@H](CS)NCCc1ccccc1` yielded a Ki of 0.61 µM.

On to `O=C(O)C(CS)NC1CCCCC1` (stereo not given), for which the affinity corresponds to a Ki of 9.6 µM.

Consider `O=C(O)[C@H](CS)NC1CCCCC1`, for which the Ki was found to be 7.9 µM.

With `COc1ccc(CNC(CS)C(=O)O)cc1` (stereo not given), the affinity corresponds to a Ki of 0.85 µM.

Take `O=C(O)C(CS)NCc1cccc2ccccc12` (stereo not given): affinity was put at a Ki of 0.81 µM.

Consider `O=C(O)C(CS)NCCCc1ccccc1` (stereo not given), for which the Ki was 1.3 µM.

As to `O=C(O)C(CS)CCCCc1ccccc1` (stereo not given), affinity was put at a Ki of 1.3 µM.

For `CC(C)N[C@H](CS)C(=O)O`, the Ki was 0.56 µM.

In turn, `CC(C)CC(CS)C(=O)O` (stereo not given) yielded a Ki of 0.16 µM.

In turn, `CNC(CS)C(=O)O` (stereo not given) gave a Ki of 2.4 µM.

`O=C(O)[C@@H](CS)NCc1ccccc1` yielded a Ki of 0.19 µM.

As to `CC(C)NC(CS)C(=O)O` (stereo not given), the inhibitory constant (Ki) was found to be 1.1 µM.

`CC(C)N[C@@H](CS)C(=O)O` gave a Ki of 2.9 µM.

Molecule `O=C(O)C(CS)NCc1ccc2ccccc2c1` (stereo not given) showed an inhibition constant Ki of over 500 µM.

In the case of `O=C(O)C(CS)NCCc1ccccc1` (stereo not given), the affinity corresponds to a Ki of 0.065 µM.

Regarding `CN(Cc1ccccc1)C(CS)C(=O)O` (stereo not given), the Ki is 12 µM.

`O=C(O)C(CS)Nc1ccccc1` (stereo not given) showed a Ki of 5.5 µM.

`O=C(O)C(CS)Cc1ccccc1` (stereo not given) gave an inhibition constant Ki of 0.01 µM.

The molecule `N[C@@H](CS)C(=O)O` [CYSTEINE] displayed an inhibition constant (Ki) of 350 µM.
